28 compounds from patent US8211911B2, “Compounds as kinase inhibitors” (priority 2008, dated 2012) can be followed below.

SMILES strings stand for the structures. Where two headings read alike, the source gives them in different places.

One assay relates to NSCLC A549 cell line. As to the kind of experiment: MTT assay against human tumor NSCLC A549 cell line. The format is cell-based. In general terms: Tetrazolium assays rely on reduction of a dye to a coloured formazan, in cell work by metabolically active cells.
The next assay concerns colon LOVO cell line. Briefly: MTT assay against colon LOVO cell line. The format is cell-based, human.

In the case of `C=C1CN(CCOc2cc3nccc(Oc4ccc5c(C(=O)NC)cccc5c4)c3cc2OC)CC12CC2` [Example 25, 6-(6-Methoxy-7-(2-(7-methylene-5-azaspiro[2.4]heptan-5-yl)ethoxy)quinolin-4-yloxy)-N-methyl-1-naphthamide], the IC50 (usually the concentration at which inhibition is half-maximal) came out at 300 nM in the assay with NSCLC A549 cell line (Homo sapiens) and 900 nM in the assay on colon LOVO cell line (Homo sapiens).
Regarding `CNC(=O)c1cccc2cc(Oc3ccnc4cc(OCCN5CC(=O)C6(CC6)C5)c(OC)cc34)ccc12` [Example 22, 6-(6-Methoxy-7-(2-(7-oxo-5-azaspiro[2.4]heptan-5-yl)ethoxy)quinolin-4-yloxy)-N-methyl-1-naphthamide], the concentration for half-maximal inhibition (IC50) was determined as 700 nM in the assay with NSCLC A549 cell line (Homo sapiens) and 1100 nM with colon LOVO cell line (Homo sapiens).
`CNC(=O)c1cccc2cc(Oc3ccnc4cc(OCCCN5CC6(CC6)C6(C5)OCCO6)c(OC)cc34)ccc12` [Example 26, 6-(6-Methoxy-7-[3-(5,8-Dioxa-10-azadispiro[2.0.4.3]undecane)propoxy]quinolin-4-yloxy)-N-methyl-1-naphthamide]: the results for the IC50 in the assay on NSCLC A549 cell line and in the assay with colon LOVO cell line were 800 nM and 1100 nM, respectively.
With `COc1cc2c(Oc3ccc4[nH]c(C)cc4c3F)ccnc2cc1OCCCN1CC(O)C2(CC2)C1` (centres unmarked) [Example 8, 5-(3-(4-(4-Fluoro-2-methyl-1H-indol-5-yloxy)-6-methoxyquinolin-7-yloxy)propyl)-5-azaspiro[2.4]-heptan-7-ol], the IC50 is 100 nM in the assay with NSCLC A549 cell line (Homo sapiens) and 300 nM in the assay on colon LOVO cell line (Homo sapiens).
For `CNC(=O)c1c(C)oc2cc(Oc3ccnc4cc(OCCCN5CC(O)C6(CC6)C5)c(OC)cc34)ccc12` (centres unmarked) [Example 18, 6-(7-(3-(7-Hydroxy-5-azaspiro[2.4]heptan-5-yl)propoxy)-6-methoxyquinolin-4-yloxy)-N,2-dimethyl-benzofuran-3-carboxamide], the IC50 came to 500 nM with NSCLC A549 cell line (Homo sapiens) and 800 nM in the assay with colon LOVO cell line (Homo sapiens).
In the same order, the values of `COc1cc2c(Oc3ccc4[nH]c(C)cc4c3F)ccnc2cc1OCCN1CC(O)C2(CC2)C1` (centres unmarked) [Example 3, 5-(2-(4-(4-fluoro-2-methyl-1H-indol-5-yloxy)-6-methoxyquinolin-7-yloxy)ethyl)-5-azaspiro[2.4]-heptan-7-ol] are 100 nM and 400 nM.
As for `COc1cc2c(Oc3ccc4[nH]c(C)cc4c3F)ccnc2cc1OCCCN1CC2(CC2)C2(C1)OCCO2` [Example 6, 4-(4-fluoro-2-methyl-1H-indol-5-yloxy)-6-methoxy-7-[3-(5,8-Dioxa-10-azadispiro[2.0.4.3]-undecane)propoxy]quinoline], the half-inhibitory concentration (IC50) in the assay with NSCLC A549 cell line turned out to be 80 nM; with colon LOVO cell line, 400 nM.
Take `CNC(=O)c1cccc2cc(Oc3ccnc4cc(OCCCN5CC(OC)C6(CC6)C5)c(OC)cc34)ccc12` (centres unmarked) [Example 29, 6-(6-Methoxy-7-(3-(7-methoxy-5-azaspiro[2.4]heptan-5-yl)propoxy)quinolin-4-yloxy)-N-methyl-1-naphthamide]: the half-maximal inhibitory concentration (IC50) stood at 300 nM in the assay with NSCLC A549 cell line (Homo sapiens) and 900 nM in the assay with colon LOVO cell line (Homo sapiens).
In the case of `CNC(=O)c1c(C)oc2cc(Oc3ccnc4cc(OCCCN5CC6(CC6)C6(C5)OCCO6)c(OC)cc34)ccc12` [Example 16, 6-(6-Methoxy-7-[3-(5,8-Dioxa-10-azadispiro[2.0.4.3]undecane)propoxy]quinolin-4-yloxy)-N,2-dimethylbenzofuran-3-carboxamide], the IC50 in the assay on NSCLC A549 cell line was determined as 200 nM; in the assay with colon LOVO cell line, 700 nM.
In the case of `C=C1CN(CCCOc2cc3nccc(Oc4ccc5c(C(=O)NC)c(C)oc5c4)c3cc2OC)CC12CC2` [Example 20, 6-(6-Methoxy-7-(3-(7-methylene-5-azaspiro[2.4]heptan-5-yl)propoxy)quinolin-4-yloxy)-N,2-dimethylbenzofuran-3-carboxamide], the concentration for half-maximal inhibition (IC50) in the assay on NSCLC A549 cell line (Homo sapiens) was 300 nM; in the assay on colon LOVO cell line (Homo sapiens), 900 nM.
In the same order, the values of `C=C1CN(CCOc2cc3nccc(Oc4ccc5c(C(=O)NC)c(C)oc5c4)c3cc2OC)CC12CC2` [Example 15, 6-(6-Methoxy-7-(2-(7-methylene-5-azaspiro[2.4]heptan-5-yl)ethoxy)quinolin-4-yloxy)-N,2-dimethyl-benzofuran-3-carboxamide] are 300 nM and 900 nM.
For `COc1cc2c(Oc3ccc4[nH]c(C)cc4c3F)ccnc2cc1OCCN1CC(OC)C2(CC2)C1` (centres unmarked) [Example 4, 4-(4-Fluoro-2-methyl-1H-indol-5-yloxy)-6-methoxy-7-(2-(7-methoxy-5-azaspiro[2.4]heptan-5-yl)ethoxy)quinoline], the IC50 in the assay on NSCLC A549 cell line (Homo sapiens) worked out at 80 nM; in the assay with colon LOVO cell line (Homo sapiens) it was 400 nM.
In the same order, the values of `CNC(=O)c1c(C)oc2cc(Oc3ccnc4cc(OCCN5CC(=O)C6(CC6)C5)c(OC)cc34)ccc12` [Example 12, 6-(6-Methoxy-7-(2-(7-oxo-5-azaspiro[2.4]heptan-5-yl)ethoxy)quinolin-4-yloxy)-N,2-dimethylbenzofuran-3-carboxamide] are 300 nM and 900 nM.
In the case of `COc1cc2c(Oc3ccc4[nH]c(C)cc4c3F)ccnc2cc1OCCCN1CC(OC)C2(CC2)C1` (centres unmarked) [Example 9, 4-(4-Fluoro-2-methyl-1H-indol-5-yloxy)-6-methoxy-7-(3-(7-methoxy-5-azaspiro[2.4]heptan-5-yl)propoxy)quinoline], the IC50 was 100 nM in the assay with NSCLC A549 cell line (Homo sapiens) and 400 nM with colon LOVO cell line (Homo sapiens).
On to `CNC(=O)c1c(C)oc2cc(Oc3ccnc4cc(OCCN5CC6(CC6)C6(C5)OCCO6)c(OC)cc34)ccc12` [Example 11, 6-(6-Methoxy-7-[2-(5,8-Dioxa-10-azadispiro[2.0.4.3]undecane)ethoxy]quinolin-4-yloxy)-N,2-dimethylbenzofuran-3-carboxamide], for which the figures for the IC50 in the assay with NSCLC A549 cell line and in the assay on colon LOVO cell line were 200 nM and 700 nM, respectively.
`C=C1CN(CCCOc2cc3nccc(Oc4ccc5c(C(=O)NC)cccc5c4)c3cc2OC)CC12CC2` [Example 30, 6-(6-Methoxy-7-(3-(7-methylene-5-azaspiro[2.4]heptan-5-yl)propoxy)quinolin-4-yloxy)-N-methyl-1-naphthamide]: the half-inhibitory concentration (IC50) stood at 900 nM in the assay on NSCLC A549 cell line (Homo sapiens) and 1000 nM in the assay with colon LOVO cell line (Homo sapiens).
For the compound `CNC(=O)c1cccc2cc(Oc3ccnc4cc(OCCN5CC6(CC6)C6(C5)OCCO6)c(OC)cc34)ccc12` [Example 21, 6-(6-Methoxy-7-[2-(5,8-Dioxa-10-azadispiro[2.0.4.3]undecane)ethoxy]quinolin-4-yloxy)-N-methyl-1-naphthamide], the half-maximal inhibitory concentration (IC50) in the assay with NSCLC A549 cell line amounted to 800 nM; in the assay with colon LOVO cell line, 1100 nM.
Turning to `CNC(=O)c1cccc2cc(Oc3ccnc4cc(OCCCN5CC(O)C6(CC6)C5)c(OC)cc34)ccc12` (centres unmarked) [Example 28, 6-(7-(3-(7-Hydroxy-5-azaspiro[2.4]heptan-5-yl)propoxy)-6-methoxyquinolin-4-yloxy)-N-methyl-1-naphthamide], the concentration for half-maximal inhibition (IC50) came to 1000 nM with NSCLC A549 cell line (Homo sapiens) and 1500 nM with colon LOVO cell line (Homo sapiens).
In the case of `CNC(=O)c1c(C)oc2cc(Oc3ccnc4cc(OCCN5CC(O)C6(CC6)C5)c(OC)cc34)ccc12` (centres unmarked) [Example 13, 6-(7-(2-(7-Hydroxy-5-azaspiro[2.4]heptan-5-yl)ethoxy)-6-methoxyquinolin-4-yloxy)-N,2-dimethylbenzofuran-3-carboxamide], the values for the IC50 in the assay on NSCLC A549 cell line (Homo sapiens) and in the assay with colon LOVO cell line (Homo sapiens) were 200 nM and 900 nM, respectively.
Turning to `CNC(=O)c1cccc2cc(Oc3ccnc4cc(OCCN5CC(OC)C6(CC6)C5)c(OC)cc34)ccc12` (centres unmarked) [Example 24, 6-(6-Methoxy-7-(2-(7-methoxy-5-azaspiro[2.4]heptan-5-yl)ethoxy)quinolin-4-yloxy)-N-methyl-1-naphthamide], the IC50 in the assay on NSCLC A549 cell line (Homo sapiens) is 1000 nM; in the assay on colon LOVO cell line (Homo sapiens) it was 1500 nM.
Turning to `CNC(=O)c1c(C)oc2cc(Oc3ccnc4cc(OCCCN5CC(OC)C6(CC6)C5)c(OC)cc34)ccc12` (centres unmarked) [Example 19, 6-(6-Methoxy-7-(3-(7-methoxy-5-azaspiro[2.4]heptan-5-yl)propoxy)quinolin-4-yloxy)-N,2-dimethyl-benzofuran-3-carboxamide], the values for the concentration for half-maximal inhibition (IC50) with NSCLC A549 cell line (Homo sapiens) and in the assay on colon LOVO cell line (Homo sapiens) were 200 nM and 700 nM, respectively.
For `CNC(=O)c1cccc2cc(Oc3ccnc4cc(OCCN5CC(O)C6(CC6)C5)c(OC)cc34)ccc12` (centres unmarked) [Example 23, 6-(7-(2-(7-Hydroxy-5-azaspiro[2.4]heptan-5-yl)ethoxy)-6-methoxyquinolin-4-yloxy)-N-methyl-1-naphthamide], the IC50 is 800 nM in the assay with NSCLC A549 cell line (Homo sapiens) and 1200 nM in the assay on colon LOVO cell line (Homo sapiens).
In the same order, the values of `CNC(=O)c1cccc2cc(Oc3ccnc4cc(OCCCN5CC(=O)C6(CC6)C5)c(OC)cc34)ccc12` [Example 27, 6-(6-Methoxy-7-(3-(7-oxo-5-azaspiro[2.4]heptan-5-yl)propoxy)quinolin-4-yloxy)-N-methyl-1-naphthamide] are 400 nM and 900 nM.
For `COc1cc2c(Oc3ccc4[nH]c(C)cc4c3F)ccnc2cc1OCCN1CC2(CC2)C2(C1)OCCO2` [Example 1, 4-(4-Fluoro-2-methyl-1H-indol-5-yloxy)-6-methoxy-7-[2-(5,8-Dioxa-10-azadispiro[2.0.4.3]-undecane)ethoxy]quinoline], the figures for the half-maximal inhibitory concentration (IC50) in the assay with NSCLC A549 cell line and in the assay with colon LOVO cell line were 90 nM and 200 nM, respectively.
As for `COc1cc2c(Oc3ccc4[nH]c(C)cc4c3F)ccnc2cc1OCCCN1CC(=O)C2(CC2)C1` [Example 7, 5-(3-(4-(4-Fluoro-2-methyl-1H-indol-5-yloxy)-6-methoxyquinolin-7-yloxy)propyl)-5-azaspiro[2.4]-heptan-7-one], the IC50 in the assay with NSCLC A549 cell line (Homo sapiens) was determined as 90 nM; in the assay on colon LOVO cell line (Homo sapiens), 200 nM.
In the same order, the values of `C=C1CN(CCCOc2cc3nccc(Oc4ccc5[nH]c(C)cc5c4F)c3cc2OC)CC12CC2` [Example 10, 4-(4-Fluoro-2-methyl-1H-indol-5-yloxy)-6-methoxy-7-(3-(7-methylene-5-azaspiro[2.4]heptan-5-yl)propoxy)quinoline] are 100 nM and 400 nM.
In the same order, the values of `CNC(=O)c1c(C)oc2cc(Oc3ccnc4cc(OCCN5CC(OC)C6(CC6)C5)c(OC)cc34)ccc12` (centres unmarked) [Example 14, 6-(6-Methoxy-7-(2-(7-methoxy-5-azaspiro[2.4]heptan-5-yl)ethoxy)quinolin-4-yloxy)-N,2-dimethylbenzofuran-3-carboxamide] are 200 nM and 700 nM.
With `CNC(=O)c1c(C)oc2cc(Oc3ccnc4cc(OCCCN5CC(=O)C6(CC6)C5)c(OC)cc34)ccc12` [Example 17, 6-(6-Methoxy-7-(3-(7-oxo-5-azaspiro[2.4]heptan-5-yl)propoxy)quinolin-4-yloxy)-N,2-benzofuran-3-carboxamide], the values for the half-inhibitory concentration (IC50) with NSCLC A549 cell line and with colon LOVO cell line were 300 nM and 900 nM, respectively.
